This is an account of results in ChEMBL document CHEMBL1138599, “Conjugation with alpha-linolenic acid improves cancer cell uptake and cytotoxicity of doxorubicin” (Bioorg Med Chem Lett, 2009).

The subject of data set [1] is MDA-MB-231. Briefly: Drug uptake in human MDA-MB-231 cells by flow cytometry. In kind it is ADME, cell-based.
Data set [2] concerns HepG2. Kind of data set: Cytotoxicity against human HepG2 cells MTT assay. In kind it is functional, cell-based.
The test system of data set [3] is MDA-MB-231. Kind of data set: Cytotoxicity against human MDA-MB-231 cells MTT assay. It counts as functional, cell-based.
Data set [4] has as its system MCF7. Briefly: Drug uptake in human MCF7 cells by flow cytometry. In kind it is ADME, cell-based.
Data set [5] deals with MCF7. Kind of data set: Cytotoxicity against human MCF7 cells by MTT assay. In kind it is functional, cell-based.

With `CC/C=C\C/C=C\C/C=C\CCCCCCCC(=O)N[C@H]1C[C@H](O[C@H]2C[C@](O)(C(=O)CO)Cc3c(O)c4c(c(O)c32)C(=O)c2c(OC)cccc2C4=O)O[C@@H](C)[C@H]1O`, the Drug uptake entry in data set [1] and in data set [4] was “Dose-dependent effect” in each case. Moreover, the IC50 in data set [2] worked out at 6.8 µM; in data set [3], 3.1 µM; in data set [5], 4.7 µM.
In the case of `COc1cccc2c1C(=O)c1c(O)c3c(c(O)c1C2=O)C[C@@](O)(C(=O)CO)C[C@@H]3O[C@H]1C[C@H](N)[C@H](O)[C@H](C)O1` [DOXORUBICIN], the Drug uptake result in data set [1] and in data set [4] was “Dose-dependent effect” throughout. Further, the IC50 was determined as 14.3 µM in data set [2] and 10.2 µM in data set [3].
